What was measured:
[1] = molecular target: Mitogen-activated protein kinase kinase kinase 20 (Homo sapiens) (UniProt Q9NYL2); test: Binding affinity to ZAK (unknown origin) assessed as percent of control at 100 nM by Kinomescan method relative to control
[2] = molecular target: T1, Dual specificity mitogen-activated protein kinase kinase 7 (Homo sapiens) (UniProt O14733); test: Binding affinity to MKK7 (unknown origin) assessed as percent of control at 100 nM by Kinomescan method relative to control
T1 sequence (whole entry): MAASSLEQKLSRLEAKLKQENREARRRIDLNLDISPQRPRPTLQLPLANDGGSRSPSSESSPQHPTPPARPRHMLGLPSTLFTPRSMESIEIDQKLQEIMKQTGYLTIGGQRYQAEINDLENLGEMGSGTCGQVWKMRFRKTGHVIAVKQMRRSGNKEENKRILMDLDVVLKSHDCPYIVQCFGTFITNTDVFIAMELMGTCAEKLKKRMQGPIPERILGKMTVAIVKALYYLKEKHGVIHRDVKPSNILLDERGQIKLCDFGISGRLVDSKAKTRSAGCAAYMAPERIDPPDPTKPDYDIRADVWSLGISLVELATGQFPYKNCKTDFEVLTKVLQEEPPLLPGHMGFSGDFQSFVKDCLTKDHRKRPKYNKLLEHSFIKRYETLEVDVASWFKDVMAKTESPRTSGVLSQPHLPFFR

[3] = molecular target: T2, Dual specificity mitogen-activated protein kinase kinase 6 (Homo sapiens, UniProt P52564); test: Inhibition of MKK6 (unknown origin)
T2 sequence (P52564 whole entry): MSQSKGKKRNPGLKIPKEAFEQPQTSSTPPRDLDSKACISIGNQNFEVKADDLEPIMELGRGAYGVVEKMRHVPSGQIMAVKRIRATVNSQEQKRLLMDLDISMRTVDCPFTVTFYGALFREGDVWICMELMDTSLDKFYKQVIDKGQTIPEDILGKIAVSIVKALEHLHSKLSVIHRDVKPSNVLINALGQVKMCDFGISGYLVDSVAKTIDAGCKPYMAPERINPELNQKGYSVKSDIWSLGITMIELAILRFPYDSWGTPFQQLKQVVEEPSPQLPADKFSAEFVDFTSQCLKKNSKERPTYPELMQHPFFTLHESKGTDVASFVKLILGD

Mitogen-activated protein kinase kinase kinase 20 (Homo sapiens), sequence (Q9NYL2 2-800 limits assumed): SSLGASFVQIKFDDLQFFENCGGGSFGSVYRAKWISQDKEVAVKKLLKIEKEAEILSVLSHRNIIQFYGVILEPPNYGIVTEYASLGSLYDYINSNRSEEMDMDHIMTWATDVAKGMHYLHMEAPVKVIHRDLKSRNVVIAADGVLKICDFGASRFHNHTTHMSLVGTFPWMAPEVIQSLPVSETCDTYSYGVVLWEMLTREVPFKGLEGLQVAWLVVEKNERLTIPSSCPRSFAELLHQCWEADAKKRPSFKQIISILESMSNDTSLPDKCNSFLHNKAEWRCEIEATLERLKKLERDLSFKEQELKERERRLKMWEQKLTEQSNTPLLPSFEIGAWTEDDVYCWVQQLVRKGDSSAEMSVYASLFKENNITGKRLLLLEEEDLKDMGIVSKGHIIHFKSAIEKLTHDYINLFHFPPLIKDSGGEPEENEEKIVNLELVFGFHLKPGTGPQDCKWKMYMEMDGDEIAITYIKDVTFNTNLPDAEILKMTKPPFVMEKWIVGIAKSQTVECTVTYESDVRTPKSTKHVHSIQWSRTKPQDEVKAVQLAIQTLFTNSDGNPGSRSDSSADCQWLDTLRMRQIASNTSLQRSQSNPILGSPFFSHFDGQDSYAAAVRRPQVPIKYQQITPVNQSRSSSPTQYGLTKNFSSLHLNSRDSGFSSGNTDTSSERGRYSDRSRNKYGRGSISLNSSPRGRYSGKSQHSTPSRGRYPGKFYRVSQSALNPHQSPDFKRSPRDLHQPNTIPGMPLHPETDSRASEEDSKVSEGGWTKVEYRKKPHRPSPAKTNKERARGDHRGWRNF

| Activity [1] [%] | Activity [2] [%] | IC50 [3] [nM] | Structure (SMILES) |
| --- | --- | --- | --- |
| 100 | 97 | – | CCCS(=O)(=O)Nc1ccc(F)c(C(=O)c2ccc3[nH]c4ncc(-c5ccc(S(=O)(=O)NCC(O)CO)cc5)cc4c3c2)c1F (stereo unspecified) |
| 88 | 100 | – | CCCS(=O)(=O)Nc1ccc(F)c(C(=O)c2ccc3[nH]c4ncc(-c5ccc(C(=O)NCC(O)CO)cc5)cc4c3c2)c1F (stereo unspecified) |
| 94 | 91 | – | CCCS(=O)(=O)Nc1ccc(F)c(C(=O)c2ccc3[nH]c4ncc(-c5ccncc5)cc4c3c2)c1F |
| 100 | 100 | – | CCCS(=O)(=O)Nc1ccc(F)c(C(=O)c2ccc3[nH]c4ncc(-c5ccc(S(N)(=O)=O)cc5)cc4c3c2)c1F |
| 0 | – | – | CCCS(=O)(=O)Nc1ccc(F)c(C(=O)c2n[nH]c3ncc(-c4ccc(O)cc4)cc23)c1F |
| – | – | < 1000 | NC(=O)c1ccc2[nH]c3ncnc(-c4ccccc4)c3c2c1 |
| 98 | 100 | – | CCCS(=O)(=O)Nc1ccc(F)c(C(=O)c2ccc3[nH]c4ncc(-c5ccc(C(=O)O)cc5)cc4c3c2)c1F |
| 0.15 | 100 | – | CCCS(=O)(=O)Nc1ccc(F)c(C(=O)c2c[nH]c3ncc(-c4ccc(O)cc4)cc23)c1F |
| 100 | 96 | – | CCCS(=O)(=O)Nc1ccc(F)c(C(=O)c2ccc3[nH]c4ncc(-c5ccc(OCC(O)CO)cc5)cc4c3c2)c1F (stereo unspecified) |
| 0.6 | 100 | – | CCCS(=O)(=O)Nc1ccc(F)c(C(=O)c2c[nH]c3ncc(-c4cccnc4)cc23)c1F |
| 94 | 78 | – | CCCS(=O)(=O)Nc1ccc(F)c(C(=O)c2c[nH]c3ncc(-c4ccc(S(N)(=O)=O)cc4)cc23)c1F |
| 100 | 100 | – | CCCS(=O)(=O)Nc1ccc(F)c(C(=O)c2ccc3[nH]c4ncc(-c5ccc(-c6nnn[nH]6)cc5)cc4c3c2)c1F |
| 89 | 98 | – | CCCS(=O)(=O)Nc1ccc(F)c(C(=O)c2ccc3[nH]c4ncc(-c5ccc(C(N)=O)cc5)cc4c3c2)c1F |
| 100 | 100 | – | CCCS(=O)(=O)Nc1ccc(F)c(C(=O)c2ccc3[nH]c4ncc(-c5ccc(O)cc5)cc4c3c2)c1F |
| 0.35 | 99 | – | CCCS(=O)(=O)Nc1ccc(F)c(C(=O)c2c[nH]c3ncc(-c4ccc(OCC(O)CO)cc4)cc23)c1F (stereo unspecified) |
| 100 | 100 | – | CCCS(=O)(=O)Nc1ccc(F)c(C(=O)c2ccc3[nH]c4ncc(-c5ccccc5F)cc4c3c2)c1F |
| 100 | 100 | – | CCCS(=O)(=O)Nc1ccc(F)c(C(=O)c2ccc3[nH]c4ncc(-c5ccc(Cl)cc5)cc4c3c2)c1F |

| Structure (SMILES) | Activity [1] [%] | Activity [2] [%] | IC50 [3] [nM] |
| --- | --- | --- | --- |
| CCCS(=O)(=O)Nc1ccc(F)c(C(=O)c2n[nH]c3ncc(-c4ccc(S(=O)(=O)NCC(O)CO)cc4)cc23)c1F (stereo unspecified) | 29 | 100 | – |
| CCCS(=O)(=O)Nc1ccc(F)c(C(=O)c2n[nH]c3ncc(-c4ccc(C(=O)NCC(O)CO)cc4)cc23)c1F (stereo unspecified) | 2.8 | 97 | – |

— ChEMBL document CHEMBL5113505 (Eur J Med Chem, 2022)
